From the NIST ThermoML archive (doi:10.1016/j.jct.2014.06.021)
Numbers after ± are expanded uncertainties.

Assays:
[1] = Crystal; DTA
[2] = Molar enthalpy of transition or fusion; conditions: Crystal; DSC

SMILES: O=P(Oc1ccccc1)(Oc1ccccc1)N1CCN(P(=O)(Oc2ccccc2)Oc2ccccc2)CC1 [tetraphenyl piperazine-1,4-diylbis(phosphonate)]
- Normal melting temperature [1]: 184.67 ± 0.53 °C
- Molar enthalpy of transition or fusion [2]: 14.3 ± 0.359 kcal/mol
